Data as given in patent US4687481A, “Transdermal drug delivery system” (priority 1986, dated 1987).
Where “and” joins values, the source holds several entries; their conditions need not be identical. Identical values can stand only once. Entries after “also recorded” stand apart in the source; their conditions may differ. Like-named read-outs stand apart in the source and are kept apart here. One block for each compound: values may come before it.

Tests used:
[1] = cited from earlier work; for FLUX (Feldman 1969) / FLUX (SCHAEFER 1979): human skin; for flux rates in comparison to the corticosterones: Table I
[2] = Experimental: To obtain maximum flux rates aliquots of the reservoir were analyzed during a period of 8 hours on day 2, day 3, and day 7.
[3] = In vitro mouse skin permeation from patch, Franz diffusion cell; settings: for Rate of permeation: 2.4 sq. cm., estradiol value is a minimum not corrected for saturation effects, maximum flux expected nearly 2-3 times greater
Experimental: A typical sustained release for the release of levonorgestrel is: a 9.4 square centimeter of Johnson and Johnson Rayon™ First Aid Tape-Hypo-Allergenic--1 inch wide, 1.5 inch long for the impervious backing and to form the adhesive layer and a 2 square centimeter ID--2.25 square centimeter OD--2/3 mm thick teflon ring. […] Microspheres are prepared from the levonorgestrel and the poly-L(-)lactide as follows: Prepare a 2.5 percent wt/v solution of polyvinyl alcohol (PVA) #523 in one liter of distilled water; prepare a 15 percent wt/v solution of poly-L-(-)lactide, approx. 1 R.S.V. in 300 ml of reagent grade methylene chloride; mix 5 ml of the poly-L-(-)lactide solution, 10 ml methylene chloride and 5 grams of levonorgestrel to form a uniform slurry; take the 1 l of PVA solution and pour it into a 2 l stainless steel beaker. Stir at approx. 1000 RPM (1550×0.7) and heat at low temperature, (approx. 35° C.); add levonorgestrel slurry. Heat approx. 4 hours, then turn off heat and stirrer; wet sieve off the 45-106 um size fraction; and dry in vacuum oven at room temperature and recover the solid microspheres. Then 45 mg of these solid microspheres are mixed with 85 mg of Vaseline or a viscous vehicle (trademark of Chesebrough-Pond's, Inc.). The Teflon ring is placed in the center on the adhesive side of the tape and the Vaseline mixture is then spread to uniform thickness iside the Teflon ring. The porous membrane is then placed over the mixture of Vaseline to form a complete patch. An estradiol patch is similarly prepared using 70 mg of Vaseline with 38 mg of microspheres containing estradiol.
In Vitro mouse skin permeation studies were conducted with a 2.4 square centimeter patch which was placed in a 20 mm diameter water jacketted Franz diffusion cell mounted on a 9-cell Drive Unit/Mounting Assembly. The water jacket temperature of the cells was controlled by a bath and water circulator which is maintained at 37° C. This system is widely used in the pharmaceutical industry for measuring the permeability of percutaneous patches across animal and cadaver skins.
Release of each drug was determined as a function of time by analysis of aliquots of the contents of the reservoir in a Waters High Pressure Liquid Chromatograph (HPLC) using a u Bondpak C-18 radial pack column with a mobile phase of 60% ethanol in water. The steroids were measured in a uv detector at a wavelength of 280 nm for estradiol and 254 for levonorgestrel.
Pieces of full thickness abdominal skin were freshly excised from a 6 week old male nude mice and mounted individually on the Franz diffusion cell. Before use, the skins were washed three times in 200 ml normal saline to remove extraneous and other soluble material. The face membrane of the system was applied to the stratum corneum side of the skin. The skin permeation profile of each drug was followed by removing the liquid from the receptor compartment for assay at the appropriate intervals. The compartment was then filled with fresh saline and the permeation continued. Release of the drug was monitored in a liquid chromatograph (HPLC).

[4] = cited from earlier work; for oral effectiveness: "first pass" inactivation
[5] = cited from earlier work
[6] = implantable drug delivery systems; cited from earlier work
[7] = cited from earlier work; remark: listed apart in the source

Compound: C[C@]12C[C@H](O)[C@H]3[C@@H](CCC4=CC(=O)CC[C@@]43C)[C@@H]1CC[C@@H]2C(=O)CO [Corticosterone]
FLUX (Feldman 1969) [1]: 7.5 × 10^-12 MOLES/CM^2 HR

Compound: C[C@]12CC[C@@H]3c4ccc(O)cc4CC[C@H]3[C@@H]1CC[C@@H]2O [Estradiol, 17β estradiol]
Estimated size needed to deliver required dose [2]: 5
flux rates in comparison to the corticosterones [1]: fairly high
FLUX (Feldman 1969) [1]: 8.2 × 10^-11 MOLES/CM^2 HR
FLUX (SCHAEFER 1979) [1]: 5.8 × 10^-10 MOLES/CM^2 HR and 4.6 × 10^-10 MOLES/CM^2 HR
permeation rate ([3]; 2.4 square centimeter estradiol patch, per day, mass unit not given): 5
delivery across freshly excised mouse skin ([3]; 2.4 square centimeter patch (DermaPatch)): 5 micrograms/day
Minimum dose absorbed ([3]; Table 3, 2.4 sq. cm. patch): > 5.2 mcg./24 hr.
Rate of permeation ([3]; Table 3): > 0.09 mcg./sq. cm./hr.
mouse skin permeation ([3]; day 1): 6 Micrograms/2.4 sq. cm.
mouse skin permeation ([3]; day 2): 10 Micrograms/2.4 sq. cm.
mouse skin permeation ([3]; day 3): 16 Micrograms/2.4 sq. cm.
oral effectiveness [4]: limited oral effectiveness

Compound: C[C@]12CC[C@@H]3c4ccc(O)cc4CC[C@H]3[C@@H]1C[C@@H](O)[C@@H]2O [Estriol]
FLUX (SCHAEFER 1979) [1]: 7.8 × 10^-11 MOLES/CM^2 HR

Compound: C[C@]12CCC(=O)C=C1CC[C@@H]1[C@@H]2[C@@H](O)C[C@@]2(C)[C@H]1CC[C@]2(O)C(=O)CO [Hydrocortisone]
increase in the penetration of hydrocortisone ([5]; modified skin, when the skin is occluded): tenfold increase
penetration of hydrocortisone when the skin is occluded ([5]; through modified skin, occluded): 10%
penetration of hydrocortisone before increase ([5]; through modified skin, starting value, not occluded): 1%
FLUX (Feldman 1969) [1]: 2.5 × 10^-11 MOLES/CM^2 HR

Estimated size needed to deliver required dose ([2]; dose required 20 (levonorgestrel) or 25 (estradiol) mcg./day): 0.5 sq. cm.
estimated delivery from a patch ([2]; patch surface area 0.5 square centimeters): 20 micrograms per day
estimated delivery from a patch ([2]; patch surface area 5 square centimeters): 2.5 milligrams per day
Minimum dose absorbed [3]: 43-160 mcg./24 hr.
delivery across freshly excised mouse skin [3]: 43 micrograms/day
Rate of permeation ([3]; Table 3): 0.75-2.8 mcg./sq. cm./hr.
average rate of release (maximum flux rates) ([3]; aliquots during 8 hours on day 2, day 3 and day 7, 2.4 square centimeter patch): 6.7 micrograms per hour
mouse skin permeation ([3]; day 1): about 25 Micrograms/2.4 sq. cm.
mouse skin permeation ([3]; day 2): 90 Micrograms/2.4 sq. cm.
mouse skin permeation ([3]; day 3): 140 Micrograms/2.4 sq. cm.
mouse skin permeation ([3]; day 7): 270 Micrograms/2.4 sq. cm.
mouse skin permeation ([3]; day 8): 375 Micrograms/2.4 sq. cm.
mouse skin permeation ([3]; day 9): 405 Micrograms/2.4 sq. cm.
mouse skin permeation ([3]; day 10): 570 Micrograms/2.4 sq. cm.
mouse skin permeation ([3]; day 11): 505 Micrograms/2.4 sq. cm.
mouse skin permeation ([3]; day 14): 590 Micrograms/2.4 sq. cm.
rate of skin permeation ([3]; during 24 hours, membrane area 2.4 square centimeters): approximately 43 ug/day
Compound: C#C[C@]1(O)CC[C@H]2[C@@H]3CCC4=CC(=O)CC[C@@H]4[C@H]3CC[C@@]21CC [Levonorgestrel, levonorgestrel]
skin permeation / release profile ([3]; abdominal skin of nude mouse): zero order release; also recorded: zero order rate
average rate of release (maximum flux rates) ([3]; from 6.7 micrograms per hour, days 2, 3 and 7): 160 micrograms per day/2.4 square/centimeters
dose sufficient to prevent fertility [6]: 30 micrograms per day

Compound: CC(=O)[C@H]1CC[C@H]2[C@@H]3CCC4=CC(=O)CC[C@]4(C)[C@H]3CC[C@]12C [Progesteone, progesterone]
accumulation in subcutaneous tissue and underlying muscle ([7]; in vivo): more pronounced with percutaneous than with subcutaneous administration
flux rates in comparison to the corticosterones [1]: fairly high
FLUX (Feldman 1969) [1]: 3.4 × 10^-11 MOLES/CM^2 HR

Compound: C#C[C@]1(O)CC[C@H]2[C@@H]3CCc4cc(O)ccc4[C@H]3CC[C@@]21C [ethinylestradiol]
oral effectiveness [4]: active orally
inactivation by the liver and other tissues ([4]; oral): very low

Compound: CN(Cc1cnc2nc(N)nc(N)c2n1)c1ccc(C(=O)N[C@@H](CCC(=O)O)C(=O)O)cc1 [methotrexate]
reduction of the duration of the reservoir ([7]; irritation increases epidermal turnover): ~50%

Compound: CN1CCCC1c1cccnc1 (stereo not shown) [nicotine]
period maintained in the reservoir ([7]; compound which very rapidly penetrates and diffuses): 3 to 4 days

Compound: estrogen
accumulation in subcutaneous tissue and underlying muscle ([7]; percutaneous versus subcutaneous administration): more pronounced with percutaneous than with subcutaneous administration
